Source: ChEMBL document CHEMBL1201862, “PubChem BioAssay data set” (2004)
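The compound was tested at five concentrations on cells cultured in 96-well plates, with a 48-hour exposure period. GI50 is the concentration that inhibits growth by half.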 The source made the active and inactive calls. No stated cut-off is given here; in the data, active = GI50 up to about 1.1 µM and inactive = higher.

Experiments:
Assay in all cases: DTP human tumour cell line panel, 48 h
[1] = test system: CCRF-CEM
[2] = test system: HT-29
[3] = test system: SR
[4] = test system: SF-268
[5] = test system: U-251
[6] = test system: ACHN
[7] = test system: SF-539
[8] = test system: SN12C
[9] = test system: HOP-62
[10] = test system: RXF 393
[11] = test system: SNB-19
[12] = test system: HCT-15
[13] = test system: K562
[14] = test system: RPMI-8226
[15] = test system: A549
[16] = test system: MCF7
[17] = test system: NCI/ADR-RES
[18] = test system: MDA-MB-435
[19] = test system: MDA-MB-231
[20] = test system: Hs-578T

SMILES | GI50 [1] | GI50 [2] | GI50 [3] | GI50 [4] | GI50 [5] | GI50 [6] | GI50 [7] | GI50 [8] | GI50 [9] | GI50 [10] | GI50 [11] | GI50 [12] | GI50 [13] | GI50 [14] | GI50 [15] | GI50 [16] | GI50 [17] | GI50 [18] | GI50 [19] | GI50 [20]
C=C1C(=O)C23[C@H](O)C1CC[C@H]2[C@]12COC3(O)[C@@H](O)[C@@H]1C(C)(C)CC[C@@H]2O | 3.03 µM (inactive) | 14.4 µM (inactive) | 1.34 µM (inactive) | 4.76 µM (inactive) | 6.04 µM (inactive) | 16.1 µM (inactive) | 6.98 µM (inactive) | 20.1 µM (inactive) | 20.6 µM (inactive) | 2.57 µM (inactive) | 18.5 µM (inactive) | 3.33 µM | 3.09 µM (inactive) | 4.08 µM (inactive) | 23.3 µM (inactive) | – | – | – | – | –
CS(=O)(=O)CC1=Nc2nnc(CCCCCCCc3nnc4n3C(=O)C(CS(C)(=O)=O)=N4)n2C1=O | > 100 µM (inactive) | > 100 µM (inactive) | > 100 µM (inactive) | > 100 µM (inactive) | > 100 µM (inactive) | > 100 µM (inactive) | > 100 µM (inactive) | > 100 µM (inactive) | > 100 µM (inactive) | > 100 µM (inactive) | > 100 µM (inactive) | > 100 µM | > 100 µM (inactive) | > 100 µM (inactive) | > 100 µM (inactive) | – | – | – | – | –
CC(=O)OCCOCNC(=S)N/N=C(\C)c1cccs1 | 61.8 µM (inactive) | > 100 µM (inactive) | > 100 µM (inactive) | > 100 µM (inactive) | > 100 µM (inactive) | > 100 µM (inactive) | > 100 µM (inactive) | > 100 µM (inactive) | > 100 µM (inactive) | > 100 µM (inactive) | > 100 µM (inactive) | > 100 µM | > 100 µM (inactive) | > 100 µM (inactive) | > 100 µM (inactive) | – | – | – | – | –
CC(C)(C)OC(=O)C1CC[C@@H](CC(=O)Oc2ccc([N+](=O)[O-])cc2)N1 (stereo partly specified) | > 100 µM (inactive) | – | 59 µM (inactive) | – | > 100 µM (inactive) | > 100 µM (inactive) | > 100 µM (inactive) | > 100 µM (inactive) | – | > 100 µM (inactive) | > 100 µM (inactive) | > 100 µM | – | > 100 µM (inactive) | > 100 µM (inactive) | > 100 µM (inactive) | > 100 µM (inactive) | > 100 µM (inactive) | > 100 µM (inactive) | –
C[N+](C)(C)CC(=O)N/N=C/c1oc(-c2c(O)ccc3ccccc23)c(-c2c(O)ccc3ccccc23)c1[N+](=O)[O-] | 15.4 µM (inactive) | 13.2 µM (inactive) | 15.2 µM (inactive) | 12.4 µM (inactive) | 15 µM (inactive) | 3.31 µM (inactive) | 14.7 µM (inactive) | 24.2 µM (inactive) | – | 11.2 µM (inactive) | 28.2 µM (inactive) | – | 12.6 µM (inactive) | 27 µM (inactive) | 21.5 µM (inactive) | – | – | – | – | –
COc1cccc(N2C(=O)C3C4C=C5c6ccccc6N(c6ccccc6)C5(C3C2=O)[C@H]2C(=O)N(c3cccc(OC)c3)C(=O)[C@@H]42)c1 (stereo partly specified) | > 100 µM (inactive) | > 100 µM (inactive) | > 100 µM (inactive) | > 100 µM (inactive) | > 100 µM (inactive) | – | > 100 µM (inactive) | > 100 µM (inactive) | > 100 µM (inactive) | > 100 µM (inactive) | > 100 µM (inactive) | > 100 µM | > 100 µM (inactive) | > 100 µM (inactive) | > 100 µM (inactive) | – | – | – | – | –
NC(=O)/C=C/C(=O)O | > 5000 µM (inactive) | > 5000 µM (inactive) | > 5000 µM (inactive) | > 5000 µM (inactive) | > 5000 µM (inactive) | > 5000 µM (inactive) | > 5000 µM (inactive) | > 5000 µM (inactive) | > 5000 µM (inactive) | > 5000 µM (inactive) | – | > 5000 µM | > 5000 µM (inactive) | > 5000 µM (inactive) | > 5000 µM (inactive) | – | – | – | – | –
CCOC(=O)c1c(N)sc2c1C(C(=O)OCC)CC2 (stereo unspecified) | – | > 100 µM (inactive) | 40 µM (inactive) | – | 73.3 µM (inactive) | > 100 µM (inactive) | – | 40.5 µM (inactive) | > 100 µM (inactive) | > 100 µM (inactive) | > 100 µM (inactive) | > 100 µM | 46.5 µM (inactive) | 45.3 µM (inactive) | > 100 µM (inactive) | > 100 µM (inactive) | – | – | 76.7 µM (inactive) | 93.8 µM (inactive)
CCOC(=O)C1Cc2c(ccc(OC)c2OC)C(=O)C1N (stereo unspecified) | > 100 µM (inactive) | > 100 µM (inactive) | 41.2 µM (inactive) | – | > 100 µM (inactive) | > 100 µM (inactive) | > 100 µM (inactive) | > 100 µM (inactive) | > 100 µM (inactive) | > 100 µM (inactive) | > 100 µM (inactive) | > 100 µM | > 100 µM (inactive) | > 100 µM (inactive) | > 100 µM (inactive) | – | – | – | – | –
O=C(O/N=C1/CCC/C1=C\c1ccccc1)c1ccc([N+](=O)[O-])cc1 | > 100 µM (inactive) | > 100 µM (inactive) | > 100 µM (inactive) | 71.6 µM (inactive) | > 100 µM (inactive) | > 100 µM (inactive) | 89.3 µM (inactive) | > 100 µM (inactive) | 96.6 µM (inactive) | 84.7 µM (inactive) | – | > 100 µM | > 100 µM (inactive) | > 100 µM (inactive) | > 100 µM (inactive) | – | – | – | – | –
COc1cccc(/C=N/NC(N)=O)c1O | > 100 µM (inactive) | > 100 µM (inactive) | 0.0603 µM (active) | > 100 µM (inactive) | > 100 µM (inactive) | > 100 µM (inactive) | > 100 µM (inactive) | > 100 µM (inactive) | > 100 µM (inactive) | > 100 µM (inactive) | > 100 µM (inactive) | > 100 µM | > 100 µM (inactive) | > 100 µM (inactive) | > 100 µM (inactive) | – | – | – | – | –
O=C(CNC(=O)OCc1ccccc1)Oc1ccccc1 | > 100 µM (inactive) | > 100 µM (inactive) | > 100 µM (inactive) | > 100 µM (inactive) | > 100 µM (inactive) | > 100 µM (inactive) | > 100 µM (inactive) | > 100 µM (inactive) | > 100 µM (inactive) | > 100 µM (inactive) | – | > 100 µM | > 100 µM (inactive) | > 100 µM (inactive) | > 100 µM (inactive) | – | – | – | – | –
COc1cc(-c2cc(CCC(=O)Nc3ccccc3[N+](=O)[O-])n(-c3ccc([N+](=O)[O-])cc3[N+](=O)[O-])n2)ccc1O | > 10 µM (inactive) | > 10 µM (inactive) | > 10 µM (inactive) | > 10 µM (inactive) | > 10 µM (inactive) | 70.6 µM (inactive) | > 10 µM (inactive) | > 10 µM (inactive) | > 10 µM (inactive) | > 10 µM (inactive) | > 10 µM (inactive) | 40.7 µM | 82.6 µM (inactive) | > 10 µM (inactive) | > 10 µM (inactive) | – | – | – | – | –
COC(=O)c1c2c(cc3c1CC1(Cc4cc5c(c(C(C)=O)c4C1)CCC5)C3)CCC2 (stereo unspecified) | > 100 µM (inactive) | 40.3 µM (inactive) | 43.7 µM (inactive) | 67.3 µM (inactive) | 78.3 µM (inactive) | 40 µM (inactive) | 34.6 µM (inactive) | 91.8 µM (inactive) | 42 µM (inactive) | 20.2 µM (inactive) | 58.3 µM (inactive) | – | 35.2 µM (inactive) | – | 27.5 µM (inactive) | – | – | – | – | –
O=C1CC2C=CC1C2CO (stereo unspecified) | > 100 µM (inactive) | > 100 µM (inactive) | > 100 µM (inactive) | > 100 µM (inactive) | > 100 µM (inactive) | > 100 µM (inactive) | > 100 µM (inactive) | > 100 µM (inactive) | > 100 µM (inactive) | > 100 µM (inactive) | > 100 µM (inactive) | > 100 µM | – | > 100 µM (inactive) | > 100 µM (inactive) | – | – | – | – | –
COc1ccc2c(c1)C(=O)Cc1ccccc1CC2 | > 100 µM (inactive) | > 100 µM (inactive) | > 100 µM (inactive) | > 100 µM (inactive) | > 100 µM (inactive) | > 100 µM (inactive) | > 100 µM (inactive) | > 100 µM (inactive) | – | > 100 µM (inactive) | > 100 µM (inactive) | > 100 µM | > 100 µM (inactive) | > 100 µM (inactive) | > 100 µM (inactive) | – | – | – | – | –
COC(=O)CCC(=O)N1C/C(=C\c2ccccc2)C(=O)/C(=C/c2ccccc2)C1 | 2.74 µM (inactive) | 1.72 µM (inactive) | 1.18 µM (inactive) | 2.28 µM (inactive) | 1.24 µM (inactive) | 1.97 µM (inactive) | 2.94 µM (inactive) | 1.86 µM (inactive) | 12.6 µM (inactive) | 2.06 µM (inactive) | 3.82 µM (inactive) | 0.432 µM | 1.43 µM (inactive) | 0.416 µM (active) | 3.64 µM (inactive) | – | – | – | – | –
Cn1nc(-c2ccccc2NC(=O)C(F)(F)F)c(=O)n(C)c1=S | 32.6 µM (inactive) | 25.8 µM (inactive) | 18.1 µM (inactive) | 25.8 µM (inactive) | 27 µM (inactive) | 24.5 µM (inactive) | 29.4 µM (inactive) | 42.3 µM (inactive) | 69.7 µM (inactive) | 39.9 µM (inactive) | 38.8 µM (inactive) | – | 15.9 µM (inactive) | – | 50.5 µM (inactive) | – | – | – | – | –
Cc1ccccc1NC(=O)C(=O)CC(=O)c1c(C)[n+]([O-])c2ccccc2[n+]1[O-] | – | > 100 µM (inactive) | 0.0278 µM (active) | > 100 µM (inactive) | > 100 µM (inactive) | > 100 µM (inactive) | > 100 µM (inactive) | > 100 µM (inactive) | > 100 µM (inactive) | > 100 µM (inactive) | > 100 µM (inactive) | > 100 µM | > 100 µM (inactive) | > 100 µM (inactive) | > 100 µM (inactive) | – | – | – | – | –
